Assays:
[1] = tested on: sister chromatid separation and segregation in Xenopus egg extracts; assay: Anaphase and mitotic exit in CSF-arrested Xenopus egg extracts with sperm nuclei; conditions: added 10 minutes before Ca2+
[2] = molecular target: T1, separase Ser1126 (Homo sapiens, UniProt Q14674); assay: Ser1126-specific in vitro kinase assays with LC-MS/MS; assay type: biochemical; conditions: securin/separase from unsynchronized 293T cells, 1 mM ATP
T1 construct: Full-length human separase was PCR-amplified from a human fetal thymus cDNA library; made in house; host or cells: 293T cells (cotransfected, unsynchronized)
Description: (A) depicts FACS and Western analyses of synchronized HeLaS3 cells undergoing mitosis. (B) depicts quantification of cell cycle distribution and phosphorylation status of separase at Ser1126 for the samples shown in (A). (C) depicts a nano-scale microcapillary LC-MS/MS analysis of native separase phosphorylation state. Shown are the selected reaction, extracted-ion chromatograms corresponding to the unphosphorylated (upper trace) and phosphorylated (bottom trace) Glu1115-Lys1130 native tryptic peptide (blue and green) and heavy internal standard (brown and red). Inset: Averaged selected reaction m/z window corresponding to the y10-ion fragment of light and heavy peptides. (D) depicts […] in vitro kinase assays. Shown is the phosphorylation status of Ser1126 in percent as determined by incubation of affinity-purified securin/separase with various pure kinases in the presence of ATP (1 mM) followed by LC-MS/MS analysis. […] Top panel: Mock treatment.
For kinase assays, the securin/separase complex was isolated from unsynchronized, transfected cells and eluted with TEV protease without prior incubation in Xenopus extracts. […] Reactions with polo and auroraA (a gift from E. A. Nigg) were carried out as described (Bischoff et al. (1998) EMBO J 17:3052; Descombes et al. (1998) EMBO J 17:1328). All kinase assays were done in the presence of 1 mM ATP.
As a substrate, overexpressed securin/separase purified from transfected, unsynchronized 293T cells was used.
Coomassie stained securin and separase bands were digested in-gel (Shevchenko et al. (1996) Anal. Chem. 68:850). Extracted peptides were separated by nano-scale microcapillary high performance liquid chromatography (HPLC) as described (Gygi et al. (1999) Mol. Cell Biol. 19:1720). Eluting peptides were ionized by electrospray ionization and analyzed by an LCQ-DECA ion trap mass spectrometer (ThermoFinnigan). Peptide ions reaching a certain threshold were automatically selected for sequence analysis by tandem mass spectrometry. Peptide sequence was determined by data-searching against the non redundant human protein database using the Sequest algorithm (Eng et al. (1994) J. Am. Soc. Mass Spectrom. 5:1579).

[3] = tested on: human metaphase chromosomes; assay: Sister chromatid separation of human metaphase chromosomes in Xenopus extracts; conditions: for Separation of sister chromatids: high concentrations of Δ90 (400 nm), human chromosomes in Xenopus extract
Method: CSF extracts were prepared as described (Murray (1991) Methods Cell Biol. 36:581). For sister chromatid separation assays two sources of chromosomes were used, Xenopus sperm nuclei and isolated human metaphase chromosomes. Xenopus sperm nuclei were prepared as described by Philpott et al. ((1991) Cell 65:569). When they were used, the protocol developed by Murray and colleagues was followed (Holloway et al. (1993) Cell 73:1393) with the exception that Δ90 was usually added later, about 50 minutes after CSF. Re-isolation of Xenopus chromosomes was done according to Funabiki and Murray ((2000) Cell 102:411). When human chromosomes were used, the KCl concentration was lowered to 70 mM. Δ90 and isolated securin/separase (0.1 volumes) were added 20 minutes after addition of human chromosomes. After additional 20 minutes at 20° C., Ca^2+ (0.6 mM) was added. Chromosomes were re-isolated from extracts 50 minutes thereafter. Analysis by immunofluorescence microscopy was performed as described (Wood et al. (1997) Cell 91:357). The percentage of separated chromosomes was calculated according to the following equation: % separation=(number of single chromatids/2)/[(number of single chromatids/2)+number of unseparated chromosomes].
It was next determined whether the PM-2 mutant would override the inhibition not only of cohesin cleavage but also of sister chromatid separation in high-Δ90 extracts. Since the biochemical experiments utilized human separase, the existing assay was modified to examine the separation of human metaphase chromosomes in Xenopus extracts. […] In the presence of wild type separase (supplied as purified securin/separase complexes) and high concentrations of Δ90 (400 nm), only 2.7% of the chromosomes separated (FIG. 5A, row 2). […] In contrast, PM-2 (Ser 1126) led to maximal separation of sister chromatids (68%) under the same conditions (FIG. 5A, row 5). Similar results were obtained with PM-2/4 and PM-2^Asp; they caused 68% and 66% separation, respectively (FIG. 5A, rows 4 and 7). A Western blot for separase was performed to assure that similar amounts of the various separases had been used in the experiment (FIG. 5B).

[4] = tested on: separase; assay: Re-inhibition of pre-activated separase by recombinant securin (cohesin hSCC1 cleavage); assay type: biochemical, human; conditions: equal amounts of separase
Method: FIGS. 7A-7C depict the independent inhibition of separase activity by phosphorylation of separase and by binding of securin. (A) depicts a Western blot (upper panel) and cohesin^hSCC1 cleavage activity using isolated chromosomes as substrate (lower panel). Lane 2: Consecutive treatment of separase with high-Δ90 extract twice. (B) depicts separase that had been pre-activated in low-Δ90 extract that was eluted and incubated with recombinant securin (lanes 2 and 3) or reference buffer (lane 1) for one hour on ice. Subsequently, its cleavage activity towards in vitro translated ^35S-cohesin^hSCC1 was tested (upper panel). The separase concentration in each reaction was 4 nM, as estimated by Coomassie staining. To compare wild type separase with PM-2/4 mutant separase in its ability to bind securin the same experiment was repeated with PM-2/4 (lower panel). Roughly equal separase concentrations in both cases were assured by comparative immunoblotting (see FIG. 4B, lanes 15 and 17). (C) depicts a model for the dual inhibition of separase in metaphase and its activation at anaphase onset. PPase denotes an unknown protein phosphatase that is proposed to act on phosphorylated separase.
To determine whether securin can inhibit separase independent of the phosphorylation state of separase, and whether separase that has already been activated and has therefore cleaved itself be re-inhibited by either of the two inhibitory mechanisms, active separase was generated by treating a securin/separase complex with a low-Δ90 extract (L; FIG. 7) to degrade securin and dephosphorylate separase. […] Active separase on beads was then incubated with either recombinant securin or a high-Δ90 extract and assayed for its ability to cleave cohesin^hSCC1. […]

[5] = tested on: cohesin^hSCC1; assay: In vitro separase activity assay (self-cleavage and cohesin hSCC1 cleavage) after low- or high-Δ90 extract; assay type: biochemical, human; conditions: for Separase self-cleavage and cohesin hSCC1 cleavage after low- versus high-Δ90 extract: low or high CDC2 activity extract
Description: To address whether high CDC2 activity blocked the activity of separase, an in vitro separase activity assay was developed. Plasmids coding for human securin and tagged human separase were transfected into 293T cells as follows.
Human cohesin^hSCC1 was isolated from the a human fetal thymus cDNA library using the following primers: 5′-[…]-3′ (SEQ ID NO:8) and 5′-[…]-3′ (SEQ ID NO:9). Both separase and securin were subcloned into the multi-purpose expression vector pCS2 (various versions). The resulting plasmids were utilized for transfection into 293T cells and for in vitro expression in TNT™ reticulocyte lysate (Promega). For immunoprecipitation of separase, two types of N-terminal tags were fused to the amino terminus of separase, three HA tags (FIG. 2A) or two IgG binding domains of protein A followed by four TEV-protease cleavage sequences (ZZ-TEV4-tag; FIGS. 2B, 4B, 5, 6B to E, and 7). Both versions of separase gave essentially the same results. Site directed mutagenesis was performed using either the QuickChange kit (Stratagene) or the GeneEditor system (Promega). All mutations were confirmed by DNA sequencing of manipulated regions.
To obtain securin/separase complexes, 293T cells were cotransfected with separase and securin expression plasmids using a calcium phosphate based method and subsequently synchronized as described (Fang et al. (1998) Mol. Cell 2:163). Two days after transfection, the nocodazole-arrested cells were lysed in 20 mM Tris/HCl pH 7.7, 100 mM NaCl, 1 mM NaF, 20 mM β-glycerophosphate, 5 mM MgCl2, 0.1% Triton X100, 1 μM microcystin-LR. After ultra-centrifugation at 100,000 g, the supernatant was mixed with anti-HA agarose (3F10, Roche) or IgG-sepharose (Amersham), depending on the tag of separase. For a 10 cm dish of confluent, transfected cells (corresponding to roughly 100 μl cell pellet), 20 μl of beads were used. After rotation overnight at 4° C. the beads were washed twice with CSF-XB (Murray (1991) Methods Cell Biol. 36:581) and then incubated with various Xenopus egg extracts. To prepare low- or high-Δ90 extracts, CSF extracts were supplemented with various concentrations of Δ90. Fifteen minutes thereafter, Ca^2+ was added (0.6 mM) and the extracts were further incubated for 15 minutes before adding them to the securin/separase beads. After 1 hour, the beads were washed twice with CSF-XB, once with 30 mM Hepes/KOH pH 7.7, 30% glycerol, 25 mM NaF, 25 mM KCl, 5 mM MgCl2, 1.5 mM ATP, 1 mM EGTA, and eluted with HA peptide (1 mg/ml) or TEV-protease (2 mg/ml) in 20 to 50 μl. Two μl of separase were combined with 2 μl of in vitro translated ^35S-cohesin^hSCC1 and incubated for 1 hour at 37° C. Alternatively, 2 μl of isolated metaphase chromosomes (8.7 μg DNA per μl) were used as a substrate.
Each mutant was incubated in either low- (odd numbered lanes) or high-Δ90 extract (even numbered lanes) before analyzing separase self-cleavage by immuno-blot (top panels) and cohesin^hSCC1 cleavage by autoradiography (middle and lower panels).

[6] = tested on: T2, recombinant securin
T2 sequence (O95997 2-202, species assumed, looked up): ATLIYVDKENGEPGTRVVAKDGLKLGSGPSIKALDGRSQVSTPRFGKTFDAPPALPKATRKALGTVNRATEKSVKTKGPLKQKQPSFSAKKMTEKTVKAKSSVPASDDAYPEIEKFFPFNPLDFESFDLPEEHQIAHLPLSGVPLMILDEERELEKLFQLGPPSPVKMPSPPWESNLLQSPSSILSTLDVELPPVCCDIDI

T1 sequence (Q14674 whole entry): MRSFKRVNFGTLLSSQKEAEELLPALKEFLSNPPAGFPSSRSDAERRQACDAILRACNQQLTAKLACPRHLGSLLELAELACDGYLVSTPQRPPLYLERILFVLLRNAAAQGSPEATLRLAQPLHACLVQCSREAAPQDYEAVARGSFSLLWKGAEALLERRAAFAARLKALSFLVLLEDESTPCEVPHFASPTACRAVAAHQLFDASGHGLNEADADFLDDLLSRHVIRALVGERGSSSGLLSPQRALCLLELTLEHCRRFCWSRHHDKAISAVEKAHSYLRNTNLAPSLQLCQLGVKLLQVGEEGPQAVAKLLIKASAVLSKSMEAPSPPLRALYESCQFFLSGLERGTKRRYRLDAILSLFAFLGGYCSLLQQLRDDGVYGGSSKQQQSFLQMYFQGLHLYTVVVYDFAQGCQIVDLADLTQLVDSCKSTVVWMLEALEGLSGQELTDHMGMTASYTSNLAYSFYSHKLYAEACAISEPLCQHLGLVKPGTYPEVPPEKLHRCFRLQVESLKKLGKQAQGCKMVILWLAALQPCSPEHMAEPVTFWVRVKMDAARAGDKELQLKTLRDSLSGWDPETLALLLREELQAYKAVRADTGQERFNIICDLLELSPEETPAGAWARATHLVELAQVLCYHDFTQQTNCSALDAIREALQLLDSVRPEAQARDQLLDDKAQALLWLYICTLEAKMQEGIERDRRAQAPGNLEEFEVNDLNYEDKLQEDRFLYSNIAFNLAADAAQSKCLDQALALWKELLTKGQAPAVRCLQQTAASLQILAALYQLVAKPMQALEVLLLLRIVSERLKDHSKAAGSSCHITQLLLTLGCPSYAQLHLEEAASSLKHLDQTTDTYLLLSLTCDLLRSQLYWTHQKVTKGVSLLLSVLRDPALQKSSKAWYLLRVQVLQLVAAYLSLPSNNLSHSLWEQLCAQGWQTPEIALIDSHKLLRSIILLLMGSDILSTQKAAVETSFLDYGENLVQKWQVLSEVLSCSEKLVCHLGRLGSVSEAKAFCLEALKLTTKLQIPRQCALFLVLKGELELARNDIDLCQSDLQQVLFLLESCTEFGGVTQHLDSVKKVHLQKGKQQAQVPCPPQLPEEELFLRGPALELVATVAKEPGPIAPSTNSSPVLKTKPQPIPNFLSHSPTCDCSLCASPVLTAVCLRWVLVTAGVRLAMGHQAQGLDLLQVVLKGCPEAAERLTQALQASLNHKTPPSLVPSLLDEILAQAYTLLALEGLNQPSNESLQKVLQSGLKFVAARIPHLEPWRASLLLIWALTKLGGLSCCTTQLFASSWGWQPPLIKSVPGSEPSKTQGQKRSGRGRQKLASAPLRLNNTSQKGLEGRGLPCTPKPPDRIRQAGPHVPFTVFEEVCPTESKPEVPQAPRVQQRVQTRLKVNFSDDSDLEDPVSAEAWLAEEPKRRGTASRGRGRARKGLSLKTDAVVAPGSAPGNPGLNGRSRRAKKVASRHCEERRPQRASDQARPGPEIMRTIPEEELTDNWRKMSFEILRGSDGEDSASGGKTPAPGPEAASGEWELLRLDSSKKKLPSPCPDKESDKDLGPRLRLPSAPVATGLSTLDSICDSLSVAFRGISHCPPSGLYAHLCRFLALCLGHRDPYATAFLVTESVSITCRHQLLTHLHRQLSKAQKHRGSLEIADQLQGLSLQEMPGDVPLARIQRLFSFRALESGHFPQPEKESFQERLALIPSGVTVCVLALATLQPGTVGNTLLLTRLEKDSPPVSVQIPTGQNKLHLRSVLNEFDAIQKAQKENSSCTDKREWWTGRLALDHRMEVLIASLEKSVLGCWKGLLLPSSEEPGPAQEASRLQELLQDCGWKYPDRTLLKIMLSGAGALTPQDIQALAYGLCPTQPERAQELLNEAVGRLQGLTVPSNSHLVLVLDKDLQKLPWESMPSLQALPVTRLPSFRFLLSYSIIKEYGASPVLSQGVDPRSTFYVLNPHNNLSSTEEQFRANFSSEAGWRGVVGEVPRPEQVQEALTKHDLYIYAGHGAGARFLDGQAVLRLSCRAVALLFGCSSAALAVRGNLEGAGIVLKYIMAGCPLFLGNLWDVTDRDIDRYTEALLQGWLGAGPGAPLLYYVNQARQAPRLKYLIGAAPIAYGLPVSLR
T1 sequence (O95997 whole entry partner): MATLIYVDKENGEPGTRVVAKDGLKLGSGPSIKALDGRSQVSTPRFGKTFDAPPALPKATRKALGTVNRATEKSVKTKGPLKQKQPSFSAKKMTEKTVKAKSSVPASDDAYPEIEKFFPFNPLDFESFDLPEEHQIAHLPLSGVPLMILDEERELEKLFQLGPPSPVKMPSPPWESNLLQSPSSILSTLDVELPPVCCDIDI

Molecule: CC[C@H](CO)Nc1nc(NCc2ccccc2)c2ncn(C(C)C)c2n1 [roscovitine]
- Rescue of anaphase (sister separation and segregation) blocked in high-Δ90 extract [1]: rescued both events with high efficiency

Molecule: CaMKII: calmodulin-dependent kinase II, from New England Biolabs
- Phosphorylation of Ser1126 by kinase [2]: not at all

Molecule: MAPK (ERK2): pure kinase from New England Biolabs
- Phosphorylation of Ser1126 by kinase [2]: efficiently phosphorylated

Molecule: PM-2/4: separase phospho-mutant, sites 2 (Ser1126) and 4 (Thr1346) changed to alanine
- Separation of sister chromatids [3]: 68%
- Maximal degree of sister chromatid separation ([3]; low-Δ90 extract plus saturating level of PM-2/4, data not shown): about 70%
- Inhibition of separase by securin, wild type versus mutant [4]: inhibited at the same concentration of securin
- Separase self-cleavage and cohesin hSCC1 cleavage after low- versus high-Δ90 extract [5]: no longer inhibited
- Separase activity relative to wild type after low-Δ90 extract ([5]; low-Δ90 extract): higher than that of wild type separase

Molecule: PM-2: single site separase phospho-mutant, site 2 (Ser1126) changed to alanine
- Separation of sister chromatids [3]: 68%
- Separase self-cleavage and cohesin hSCC1 cleavage after low- versus high-Δ90 extract [5]: still largely resistant to inhibition
- Separase activity relative to wild type after low-Δ90 extract ([5]; low-Δ90 extract): higher than that of wild type separase

Molecule: PM-2^Asp: separase with mutation of Ser1126 to aspartate
- Separation of sister chromatids [3]: 66%
- Separase self-cleavage and cohesin hSCC1 cleavage after low- versus high-Δ90 extract [5]: still largely resistant to inactivation

Molecule: PM-4: single site separase phospho-mutant, site 4 (Thr1346) changed to alanine
- Separation of sister chromatids [3]: 38%
- Separase self-cleavage and cohesin hSCC1 cleavage after low- versus high-Δ90 extract [5]: inactivated by high CDC2 activity albeit less so than wild type separase
- Separase activity relative to wild type after low-Δ90 extract ([5]; low-Δ90 extract): higher than that of wild type separase

Molecule: auroraA: pure kinase, a gift from E. A. Nigg
- Phosphorylation of Ser1126 by kinase [2]: not at all

Molecule: catalytically inactive separase: mutant separase in which the catalytic cysteine residue was replaced by a serine
- Separation of sister chromatids [3]: 0.4%
- Separase self-cleavage ([5]; low-Δ90 extract): not cleaved

Molecule: human separase phospho-mutant PM-2/4 (Ser1126 and Thr1346 changed to alanine), with N-terminal ZZ-TEV4-tag
- cohesin^hSCC1 cleavage by pre-activated separase [6]: both were inhibited at the same concentration of securin

Molecule: polo: pure kinase, a gift from E. A. Nigg
- Phosphorylation of Ser1126 by kinase [2]: not at all

Molecule: wild type separase: human separase protein (SEQ ID NO:3), tagged, purified as securin/separase complex from 293T cells
- Separation of sister chromatids [3]: 2.7%
- Inhibition of separase by securin, wild type versus mutant [4]: inhibited at the same concentration of securin
- Separase self-cleavage and cohesin hSCC1 cleavage after low- versus high-Δ90 extract [5]: efficiently at low but not at high CDC2 activity

Source: US20030148462A1, “Dual inhibition of sister chromatid separation at metaphase” (President and fellows of Harvard College, priority 2001, published 2003)
